{"source": "patent US20130136780A1", "about": "“CROSSLINKED POLYSACCHARIDE GEL COMPOSITIONS FOR MEDICAL AND COSMETIC APPLICATIONS” (ALLERGAN, INC., priority 2007, published 2013)", "origin": "cited, not measured here", "settings": "osteoarthritis patient, intra-articular injection of 40 mg; Selvi et al. 2004", "data": [{"smiles": "CC(C)(C)CC(=O)OCC(=O)[C@@]12OC(C)(C)O[C@@H]1C[C@H]1[C@@H]3CCC4=CC(=O)C=C[C@]4(C)[C@@]3(F)[C@@H](O)C[C@@]12C", "note": "[triamcinolone hexacetonide]", "values": [{"measurement": "adverse outcome after intra-articular injection (case report)", "value": "developed acute arthritis induced by the injected triamcinolone crystals"}]}]}
